Results taken from patent publication US8796268B2, “Heteroaryls and uses thereof” (Millennium Pharmaceuticals, Inc., priority 2010, dated 2014).

Key:
Format in all cases: biochemical
[1] = target: T1, Human PI3K beta (Homo sapiens, UniProt P42338); assay: Human PI3K beta enzyme assay (HTRF); conditions: concentration not given, b1387 states 1.1 μM for PI3K α and β; for inhibition at 1.1 µM: read-out: p110 beta Percent Inhibition
T1 construct: His (N); host or cells: SF9 insect cells (baculovirus)
T1 sequence (P42338 whole entry): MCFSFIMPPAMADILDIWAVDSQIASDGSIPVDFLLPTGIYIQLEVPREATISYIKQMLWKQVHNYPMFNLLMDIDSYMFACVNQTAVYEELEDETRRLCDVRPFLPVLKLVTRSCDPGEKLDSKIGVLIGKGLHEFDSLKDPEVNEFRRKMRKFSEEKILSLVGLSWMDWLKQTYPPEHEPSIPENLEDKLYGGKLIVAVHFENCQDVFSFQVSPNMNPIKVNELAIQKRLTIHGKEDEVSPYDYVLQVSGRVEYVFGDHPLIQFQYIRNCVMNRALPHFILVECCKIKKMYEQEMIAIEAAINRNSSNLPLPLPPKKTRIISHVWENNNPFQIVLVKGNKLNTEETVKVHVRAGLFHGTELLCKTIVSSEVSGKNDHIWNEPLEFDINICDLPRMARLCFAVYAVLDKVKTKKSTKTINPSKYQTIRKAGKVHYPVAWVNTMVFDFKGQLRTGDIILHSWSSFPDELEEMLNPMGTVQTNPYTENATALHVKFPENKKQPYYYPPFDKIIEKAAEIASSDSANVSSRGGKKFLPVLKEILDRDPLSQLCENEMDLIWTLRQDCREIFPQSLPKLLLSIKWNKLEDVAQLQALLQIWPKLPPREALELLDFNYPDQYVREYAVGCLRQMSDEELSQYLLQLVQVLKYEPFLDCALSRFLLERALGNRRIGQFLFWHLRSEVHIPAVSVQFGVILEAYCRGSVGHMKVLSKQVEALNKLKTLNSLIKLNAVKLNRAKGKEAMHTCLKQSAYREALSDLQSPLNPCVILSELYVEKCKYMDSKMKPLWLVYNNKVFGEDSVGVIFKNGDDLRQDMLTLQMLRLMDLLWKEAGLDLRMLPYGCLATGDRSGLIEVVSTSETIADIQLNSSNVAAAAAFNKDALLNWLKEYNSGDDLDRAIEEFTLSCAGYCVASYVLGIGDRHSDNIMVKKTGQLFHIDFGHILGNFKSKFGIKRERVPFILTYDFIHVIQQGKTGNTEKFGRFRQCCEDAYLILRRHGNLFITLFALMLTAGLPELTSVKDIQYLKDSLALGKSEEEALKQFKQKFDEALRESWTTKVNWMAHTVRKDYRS
T1 sequence (P27986 whole entry partner): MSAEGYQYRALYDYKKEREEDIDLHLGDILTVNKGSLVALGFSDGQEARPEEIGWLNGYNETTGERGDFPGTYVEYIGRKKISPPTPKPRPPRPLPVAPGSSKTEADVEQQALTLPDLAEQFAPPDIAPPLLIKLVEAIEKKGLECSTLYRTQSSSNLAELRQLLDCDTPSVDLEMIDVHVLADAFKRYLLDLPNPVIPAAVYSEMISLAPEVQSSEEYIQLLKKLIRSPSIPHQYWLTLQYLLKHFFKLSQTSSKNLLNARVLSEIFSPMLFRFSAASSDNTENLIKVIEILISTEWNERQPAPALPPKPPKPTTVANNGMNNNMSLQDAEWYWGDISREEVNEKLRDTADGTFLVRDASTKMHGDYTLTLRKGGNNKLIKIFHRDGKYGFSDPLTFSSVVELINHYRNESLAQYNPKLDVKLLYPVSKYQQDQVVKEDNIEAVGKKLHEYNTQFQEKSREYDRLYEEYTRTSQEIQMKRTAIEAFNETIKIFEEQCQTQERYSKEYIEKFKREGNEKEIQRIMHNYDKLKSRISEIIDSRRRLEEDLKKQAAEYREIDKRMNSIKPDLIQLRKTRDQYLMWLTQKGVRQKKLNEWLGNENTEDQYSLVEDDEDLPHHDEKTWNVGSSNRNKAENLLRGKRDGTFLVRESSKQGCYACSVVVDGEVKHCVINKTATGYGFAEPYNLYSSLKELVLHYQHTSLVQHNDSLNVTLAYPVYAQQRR
Procedure, shortened: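 Compounds were mixed with 25 uM ATP, then with 3.5 uM di-C8 PI(4,5)P2 and His-tagged PI3K isoform (β 5.25 nM, δ 0.75 nM, γ 5 nM) at pH 7.00. After 30 min at room temperature, EDTA stopped the reaction and PIP3 was measured by HTRF over 1 h.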

[2] = target: T2, Human PI3K gamma (Homo sapiens, UniProt P48736); assay: Human PI3K gamma enzyme assay (HTRF); conditions: concentration not given, b1389 states 1.0 μM for PI3K δ and γ; for inhibition at 1 µM: read-out: p110 gamma Percent Inhibition
T2 construct: His (N); host or cells: SF9 insect cells (baculovirus)
T2 sequence (P48736 whole entry): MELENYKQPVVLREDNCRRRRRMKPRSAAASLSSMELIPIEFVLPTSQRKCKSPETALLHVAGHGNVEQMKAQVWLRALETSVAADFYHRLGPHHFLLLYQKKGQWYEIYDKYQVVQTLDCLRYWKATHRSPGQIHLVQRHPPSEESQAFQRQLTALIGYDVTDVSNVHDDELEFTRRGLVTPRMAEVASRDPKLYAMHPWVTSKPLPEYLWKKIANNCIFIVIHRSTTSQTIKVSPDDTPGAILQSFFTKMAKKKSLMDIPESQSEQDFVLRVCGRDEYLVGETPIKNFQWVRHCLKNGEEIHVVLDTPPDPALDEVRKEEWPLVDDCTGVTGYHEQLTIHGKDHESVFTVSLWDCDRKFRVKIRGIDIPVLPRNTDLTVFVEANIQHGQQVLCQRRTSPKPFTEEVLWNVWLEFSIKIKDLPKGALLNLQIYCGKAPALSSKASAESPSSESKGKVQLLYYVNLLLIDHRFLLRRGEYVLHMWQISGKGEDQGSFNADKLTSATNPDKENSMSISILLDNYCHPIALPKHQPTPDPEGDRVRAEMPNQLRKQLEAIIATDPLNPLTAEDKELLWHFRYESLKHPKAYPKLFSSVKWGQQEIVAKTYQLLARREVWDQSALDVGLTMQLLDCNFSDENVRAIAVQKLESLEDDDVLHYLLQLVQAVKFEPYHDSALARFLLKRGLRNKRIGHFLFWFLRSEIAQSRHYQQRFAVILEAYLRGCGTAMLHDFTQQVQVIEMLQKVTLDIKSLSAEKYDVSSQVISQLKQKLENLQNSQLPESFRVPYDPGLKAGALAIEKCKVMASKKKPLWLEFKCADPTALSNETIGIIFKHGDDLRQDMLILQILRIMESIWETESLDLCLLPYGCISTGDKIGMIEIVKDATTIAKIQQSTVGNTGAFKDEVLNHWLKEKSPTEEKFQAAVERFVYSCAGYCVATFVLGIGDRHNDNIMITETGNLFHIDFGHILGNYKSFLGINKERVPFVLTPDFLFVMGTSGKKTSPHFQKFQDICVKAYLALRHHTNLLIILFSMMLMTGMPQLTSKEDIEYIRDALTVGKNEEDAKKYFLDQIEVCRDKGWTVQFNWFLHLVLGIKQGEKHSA
Text: (§1) The catalytic subunits of PI3Ks are cloned into either pDEST8(p110 alpha) or pDEST10(p110beta, p110delta, and p110gamma) as N-terminal His tagged fusion proteins using the Gateway system (Invitrogen, catalog#11804-010 for pDEST8 and 11806-015 for pDEST10). The sequences are verified before recombinant protein expression using the Baculovirus Expression System with Gateway® Technology. The accession numbers for the subunits are as follows: • p110 alpha (GB:U79143) • p110beta (GB: S67334) • p110delta (GB: U86453) • p110gamma (GB: X83368) • The regulatory subunits of PI3Ks are cloned into pDEST8 as un-tagged protein using the Gateway system (Catalog#11804-010). The sequences are verified before recombinant protein expression using the Baculovirus Expression System with Gateway® Technology. The accession numbers for the subunits are as following: • p85 alpha (GB: BC030815) • p101(GB: AB028925) • VPS34 (accession number GB:BC033004) is cloned into pDEST20—Thombin as N-terminal GST tagged fusion proteins using the Gateway system (Invitrogen, catalog#11804-013). The sequences are verified before recombinant protein expression using the Baculovirus Expression System with Gateway® Technology.
(§2) For expression of the p110 complexes, the p85 (MOI of 4) is co-infected with p110 alpha, beta, and delta respectively (1MOI) in SF9 cells and harvested at 60 hours post co-infection. P110 gamma was infected at 1 MOI and harvested at 60 hours post infection.
(§3) For purification, PI3Ks are purified by Ni-NTA Agarose (Qiagen #30250) followed by Mono Q 10/100 GL (Ge Healthcare #17-5167-01). VPS34 is purified by Glutathione Sepharose 4 Fast Flow (GE Healthcare #17-5132-03) followed by HiTrap Q (GE Healthcare #17-1153-01).
(§4) 0.5 uL compounds in DMSO are added to wells of a 384 well microtitre plate (Corning 3575). At room temperature: 10 ul PI3K reaction buffer (50 mM Hepes, 5 mM DTT, 150 mM NaCl, 10 mM beta-glycerophosphate, 10 mM MgCl2, 0.25 mM sodium cholate and 0.001% CHAPS, pH 7.00) containing ATP (25 uM, Promega) is added followed immediately by 10 ul PI3K reaction buffer containing di-C8 P1(4,5)P2 (3.5 uM, CellSignals) and PI3Kalpha (0.4875 nM, Millennium Protein Sciences Group) and the mixture is incubated with shaking at room temperature for 30 minutes. Then 5 ul PI3K stop mix (50 mM Hepes, 5 mM DTT, 150 mM NaCl, 0.01% Tween-20, 15 mM EDTA and 25 nM biotin-PI(3,4,5)P3 (Echelon) is added to quench the reaction followed immediately by addition of 5 ul HTRF detection mix (50 mM Hepes, 5 mM DTT, 150 mM NaCl, 0.01% Tween-20, 40 mM KF, 1.0 nM GST:GRP-1 PH domain (Millennium Protein Sciences Group), 15 nM Streptavidin-XL (CisBio) and 0.375 nM anti-GST Eu++ antibody (CisBio) at pH 7.00). The plates are then incubated for 1 hour at room temperature with shaking and then read on a BMG PheraStar Plus reader.
(§5) 2) Human PI3K beta, delta and gamma isoforms are tested using the procedure described for PI3K alpha above but with the following changes: PI3K beta (5.25 nM), PI3K delta (0.75 nM) and PI3K gamma (5 nM). All isoforms supplied by Millennium Protein Science Group.
(§6) For the assay methods described above, test compound percent inhibition, at various concentrations, is calculated relative to control (DMSO and EDTA) treated samples. Compound concentration versus percent inhibition curves are fitted to generate IC50 values. One skilled in the art will appreciate that the values generated either as percentage inhibition at a single concentration or IC50 values are subject to experimental variation.

[3] = target: T3, Human PI3K delta (Homo sapiens, UniProt O00329); assay: Human PI3K delta enzyme assay (HTRF); conditions: concentration not given, b1389 states 1.0 μM for PI3K δ and γ; for inhibition at 1 µM: read-out: p110 delta Percent Inhibition
T3 construct: His (N); host or cells: SF9 insect cells (baculovirus)
T3 sequence (O00329 whole entry): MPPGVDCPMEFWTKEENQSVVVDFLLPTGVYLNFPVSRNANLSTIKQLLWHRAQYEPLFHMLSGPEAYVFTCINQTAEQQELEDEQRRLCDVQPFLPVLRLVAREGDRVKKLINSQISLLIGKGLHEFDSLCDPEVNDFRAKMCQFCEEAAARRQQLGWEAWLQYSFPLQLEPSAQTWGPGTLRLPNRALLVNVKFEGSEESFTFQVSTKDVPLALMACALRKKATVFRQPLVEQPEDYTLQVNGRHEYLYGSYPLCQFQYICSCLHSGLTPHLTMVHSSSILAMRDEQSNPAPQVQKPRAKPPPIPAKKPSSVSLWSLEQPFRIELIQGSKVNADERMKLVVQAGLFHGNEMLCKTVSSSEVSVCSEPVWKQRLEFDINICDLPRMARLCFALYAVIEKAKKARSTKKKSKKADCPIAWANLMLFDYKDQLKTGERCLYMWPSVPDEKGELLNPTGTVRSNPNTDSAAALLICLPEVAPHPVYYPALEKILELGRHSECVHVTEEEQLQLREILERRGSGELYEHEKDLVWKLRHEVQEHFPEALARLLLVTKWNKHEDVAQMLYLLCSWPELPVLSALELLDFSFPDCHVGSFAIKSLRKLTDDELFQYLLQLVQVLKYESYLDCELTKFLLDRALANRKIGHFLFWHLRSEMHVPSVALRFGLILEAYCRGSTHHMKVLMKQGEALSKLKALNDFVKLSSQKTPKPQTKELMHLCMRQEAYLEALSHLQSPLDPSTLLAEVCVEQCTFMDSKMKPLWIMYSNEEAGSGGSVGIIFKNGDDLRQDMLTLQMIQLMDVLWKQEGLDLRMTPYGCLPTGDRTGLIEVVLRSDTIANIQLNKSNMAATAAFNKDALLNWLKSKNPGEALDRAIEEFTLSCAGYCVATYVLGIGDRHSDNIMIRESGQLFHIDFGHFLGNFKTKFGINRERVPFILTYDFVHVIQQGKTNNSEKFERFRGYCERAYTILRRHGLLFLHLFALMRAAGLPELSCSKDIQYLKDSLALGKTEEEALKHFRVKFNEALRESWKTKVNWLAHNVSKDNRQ
T3 sequence (P27986 whole entry partner): as the sequence (P27986 whole entry partner) above
Text: as §1, §2, §3, §4, §5, §6

[4] = target: T4, Human PI3K alpha (Homo sapiens, UniProt P42336); assay: Human PI3K alpha enzyme assay (HTRF); conditions: concentration not given, b1387 states 1.1 μM for PI3K α and β; for inhibition at 1.1 µM: read-out: p110 alpha Percent Inhibition
T4 construct: His (N); host or cells: SF9 insect cells (baculovirus)
T4 sequence (P42336 whole entry): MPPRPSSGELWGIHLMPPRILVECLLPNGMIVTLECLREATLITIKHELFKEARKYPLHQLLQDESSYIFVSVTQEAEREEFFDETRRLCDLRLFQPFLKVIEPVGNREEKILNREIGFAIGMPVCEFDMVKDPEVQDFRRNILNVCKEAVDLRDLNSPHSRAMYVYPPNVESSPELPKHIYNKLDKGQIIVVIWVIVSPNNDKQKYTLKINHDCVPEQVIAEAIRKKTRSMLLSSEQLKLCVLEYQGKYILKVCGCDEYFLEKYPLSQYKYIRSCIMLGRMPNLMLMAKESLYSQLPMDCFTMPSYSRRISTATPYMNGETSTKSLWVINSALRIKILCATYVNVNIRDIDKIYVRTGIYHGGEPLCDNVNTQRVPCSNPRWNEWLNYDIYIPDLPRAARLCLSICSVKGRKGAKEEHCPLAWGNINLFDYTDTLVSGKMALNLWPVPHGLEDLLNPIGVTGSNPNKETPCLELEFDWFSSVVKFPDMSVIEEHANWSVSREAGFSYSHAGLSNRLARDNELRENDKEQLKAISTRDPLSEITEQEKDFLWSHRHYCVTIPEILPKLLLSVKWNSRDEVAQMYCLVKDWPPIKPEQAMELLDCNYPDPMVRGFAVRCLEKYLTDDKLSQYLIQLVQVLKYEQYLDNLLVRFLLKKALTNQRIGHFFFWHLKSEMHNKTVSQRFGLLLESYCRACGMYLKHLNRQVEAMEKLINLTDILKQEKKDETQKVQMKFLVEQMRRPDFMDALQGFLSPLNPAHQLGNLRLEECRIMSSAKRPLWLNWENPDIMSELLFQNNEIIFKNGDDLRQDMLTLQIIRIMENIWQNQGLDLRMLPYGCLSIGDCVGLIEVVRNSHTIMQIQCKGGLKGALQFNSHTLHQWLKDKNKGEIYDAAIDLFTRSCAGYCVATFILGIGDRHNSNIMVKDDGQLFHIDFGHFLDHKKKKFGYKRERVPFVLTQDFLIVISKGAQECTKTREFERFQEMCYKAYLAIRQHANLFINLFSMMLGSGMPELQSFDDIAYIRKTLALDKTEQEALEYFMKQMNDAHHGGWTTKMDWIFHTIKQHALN
T4 sequence (P27986 whole entry partner): as the sequence (P27986 whole entry partner) above

| Compound | inhibition at 1.1 µM [1] [%] | inhibition at 1 µM [2] [%] | inhibition at 1 µM [3] [%] | inhibition at 1.1 µM [4] [%] | p110 alpha Percent Inhibition [4] [%] | p110 beta Percent Inhibition [1] [%] | p110 gamma Percent Inhibition [2] [%] | p110 delta Percent Inhibition [3] [%] |
| --- | --- | --- | --- | --- | --- | --- | --- | --- |
| CC(=O)Nc1cc(-c2cc(C(c3ccc(Cl)cc3)N3CCC(CN)C3)c(-c3nnc[nH]3)s2)ccn1 (stereo not drawn) [Compound 139] | 100 | 24 | 105 | 77 |  |  |  |  |
| CC(=O)Nc1cc(-c2sc(-c3nnc[nH]3)c(S(=O)(=O)c3ccc(Cl)cc3)c2C#N)ccn1 [Compound 140, N-{4-[4-[(4-chlorophenyl)sulfonyl]-3-cyano-5-(4H-1,2,4-triazol-3-yl)-2-thienyl]pyridin-2-yl}acetamide] | 47 | 62 | 74 | 76 |  |  |  |  |
| Cc1ccc(C(O)c2cc(-c3ccncc3)sc2-c2nnc[nH]2)c(C)c1 (stereo not drawn) [Compound 141] | 89 | 15 | 66 | 17 |  |  |  |  |
| OC(c1ccc(C(F)(F)F)cc1)c1cc(-c2ccncc2)sc1-c1nnc[nH]1 (stereo not drawn) [Compound 142] | 67 | 7 | 47 | 15 |  |  |  |  |
| N#Cc1c(-c2ccncc2)sc(C(=O)O)c1Cc1ccc2ccccc2c1 [Compound 143] | 115 | 62 | 85 | 58 |  |  |  |  |
| CC(=O)Nc1cc(-c2cc(C(c3ccc(Cl)cc3)N3CC(N(C)C)C3)c(-c3nnc[nH]3)s2)ccn1 (stereo not drawn) [Compound 144] | 94 | 19 | 111 |  | 63 |  |  |  |
| CC(=O)Nc1cc(-c2cc(C(O)(CCCN(C)C)c3ccc(Cl)cc3)c(-c3nnc[nH]3)s2)ccn1 (stereo not drawn) [Compound 145] | 98 | 9 | 97 | 64 |  |  |  |  |
| O=C(Nc1cc(-c2cc(C(c3ccc(Cl)cc3)N3CCNCC3)c(-c3nnc[nH]3)s2)ccn1)C1CC1 (stereo not drawn) [Compound 146] | 103 | 23 | 110 | 67 |  |  |  |  |
| OC(c1ccc(Cl)cc1)c1cc(-c2ccnc(Nc3ncco3)c2)sc1-c1nnc[nH]1 (stereo not drawn) [Compound 147] | 96 | 18 | 107 | 83 |  |  |  |  |
| N#Cc1c(-c2ccncc2)sc(-c2nnc[nH]2)c1Cc1ccc2ccccc2c1 [Compound 148] | 98 | 34 | 69 | 41 |  |  |  |  |
| COc1cc(C(O)c2cc(-c3ccnc(Cl)c3)sc2-c2nnc[nH]2)c(F)cc1Cl (stereo not drawn) [Compound 149] |  |  |  |  | 54 | 109 | 75 | 117 |
| Nc1nccc(-c2sc(-c3ccncc3)nc2Cc2ccc(Cl)cc2)n1 [Compound 150, 4-(4-(4-chlorobenzyl)-2-(pyridin-4-yl)thiazol-5-yl)pyrimidin-2-amine] | 54 | 6 | 35 | 2 |  |  |  |  |
| CC(=O)Nc1cc(-c2cc(C(c3ccc(Cl)cc3)N3CCC3)c(-c3nnc[nH]3)s2)ccn1 (stereo not drawn) [Compound 151] | 105 | 17 | 108 | 72 |  |  |  |  |
| COC(=O)Nc1cc(-c2cc(C(c3ccc(Cl)cc3)N3CCNCC3)c(-c3nnc[nH]3)s2)ccn1 (stereo not drawn) [Compound 152] | 97 | 16 | 106 | 61 |  |  |  |  |
| CC(=O)Nc1cc(-c2sc(-c3nnc[nH]3)c(C(O)c3ccc4ccccc4n3)c2C#N)ccn1 (stereo not drawn) [Compound 153] | 84 | 11 | 87 | 75 |  |  |  |  |
| CC(=O)Nc1cc(-c2cc(C(c3ccc(Cl)cc3)N3CCNCC3)c(-c3nnc[nH]3)s2)ccn1 (stereo not drawn) [Compound 154] | 108 | 39 | 108 | 79 |  |  |  |  |
| OC(c1ccccc1F)c1cc(-c2ccncc2)sc1-c1nnc[nH]1 (stereo not drawn) [Compound 155] | 64 | 28 | 53 | 29 |  |  |  |  |
| CC(=O)Nc1cc(-c2cc(C(c3ccc(Cl)cc3)N3CCN(CC(F)(F)F)CC3)c(-c3nnc[nH]3)s2)ccn1 (stereo not drawn) [Compound 157] | 68 | 7 | 101 | 55 |  |  |  |  |
| COc1ccc(C(O)c2cc(-c3ccncc3)sc2-c2nnc[nH]2)c(C)c1 (stereo not drawn) [Compound 158] | 94 | 20 | 69 | 18 |  |  |  |  |
| OC(c1cccc(C(F)(F)F)c1)c1cc(-c2ccncc2)sc1-c1nnc[nH]1 (stereo not drawn) [Compound 159] | 61 | 5 | 31 | 18 |  |  |  |  |
| CC(=O)Nc1cc(-c2cc(C(c3ccc(Cl)cc3)N(C)C3CN(C)C3)c(-c3nnc[nH]3)s2)ccn1 (stereo not drawn) [Compound 160] | 101 | 20 | 107 | 74 |  |  |  |  |
| Cc1cc(-c2cc(C(c3ccc(Cl)cc3)N(C)C)c(-c3nnc[nH]3)s2)ccn1 (stereo not drawn) [Compound 161] | 60 | 7 | 40 | 14 |  |  |  |  |
| OC(c1ccc(F)cc1F)c1cc(-c2ccncc2)sc1-c1nnc[nH]1 (stereo not drawn) [Compound 162] | 93 | 33 | 83 | 38 |  |  |  |  |
| CN[C@H]1CCN(C(c2ccc(Cl)cc2)c2cc(-c3ccnc(NC(C)=O)c3)sc2-c2nnc[nH]2)C1 (stereo partly drawn) [Compound 163] | 110 | 25 | 106 | 97 |  |  |  |  |
| CC(=O)Nc1cc(-c2cc(C(c3ccc(Cl)cc3)N3CC[C@H](O)C3)c(-c3nnc[nH]3)s2)ccn1 (stereo partly drawn) [Compound 164] | 107 | 44 | 112 | 100 |  |  |  |  |
| CC(=O)Nc1cc(-c2sc(-c3nnc[nH]3)c(C(O)c3ccc(Cl)cc3)c2C#N)ccn1 (stereo not drawn) [Compound 165] | 77 | 14 | 87 | 64 |  |  |  |  |
| CC(=O)Nc1cc(-c2sc(-c3nnc[nH]3)c(Sc3ccc(Cl)cc3)c2C#N)ccn1 [Compound 166] | 82 | 3 | 85 | 92 |  |  |  |  |
